# Results published in ChEMBL document CHEMBL4340556, “Novel benzothiazole hydrazine carboxamide hybrid scaffolds as potential in vitro GABA AT enzyme inhibitors: Synthesis, molecular docking and antiepileptic evaluation” (Bioorg Med Chem Lett, 2019).
# Activity calls are given as the source filed them. The rule behind the calls is not given here.
# Key:
# Mus musculus [1] = assay: Anticonvulsant activity in ip dosed albino mouse model of subcutaneous pentylenetetrazole-induced seizure assessed as failure to observe even a single episode of clonic spasms for at least 5 secs pretreated for 0.5 hrs followed by pentylenetetrazole induction; format: functional
# Mus musculus [2] = assay: Anticonvulsant activity in ip dosed albino mouse model of maximal electroshock-induced seizures assessed as prevention of tonic hind limb extension pretreated for 4 hrs followed by 50 mA current-induction for 0.25 secs; format: functional
# Mus musculus [3] = assay: Anticonvulsant activity in ip dosed albino mouse model of subcutaneous pentylenetetrazole-induced seizure assessed as failure to observe even a single episode of clonic spasms for at least 5 secs pretreated for 4 hrs followed by pentylenetetrazole induction; format: functional
# Mus musculus [4] = assay: Anticonvulsant activity in ip dosed albino mouse model of maximal electroshock-induced seizures assessed as prevention of tonic hind limb extension pretreated for 0.5 hrs followed by 50 mA current-induction for 0.25 secs; format: functional
# [5] = Neurotoxicity in ip dosed albino mouse assessed as motor impairment measured at 4 hrs by rotarod test; format: toxicity, organism-based; conditions: in vivo
# [6] = Neurotoxicity in ip dosed albino mouse assessed as motor impairment measured at 0.5 hrs by rotarod test; format: toxicity, organism-based; conditions: in vivo
# [7] = target: 4-aminobutyrate aminotransferase, mitochondrial (Mus musculus, UniProt P61922); assay: Inhibition of GABA aminotransferase in mouse brain homogenates using GABA and alpha-ketoglutarate as substrates preincubated for 30 mins followed by beta-NADP addition and measured for 20 mins by spectrophotometric method; format: tissue-based
# [8] = Hepatotoxicity in albino mouse assessed as increase in serum SGPT level at 30 mg/kg, po administered daily for one month measured post-last dose; format: toxicity, organism-based; conditions: in vivo
# [9] = Hepatotoxicity in albino mouse assessed as increase in serum serum alkaline phosphatase level at 30 mg/kg, po administered daily for one month measured post-last dose; format: toxicity, organism-based; conditions: in vivo
# [10] = Hepatotoxicity in albino mouse assessed as decrease in serum SGOT level at 30 mg/kg, po administered daily for one month measured post-last dose; format: toxicity, organism-based; conditions: in vivo
# [11] = Hepatotoxicity in albino mouse assessed as decrease in serum SGPT level at 30 mg/kg, po administered daily for one month measured post-last dose; format: toxicity, organism-based; conditions: in vivo
# Mus musculus [12] = assay: Anticonvulsant activity in po dosed albino mouse brain assessed as increase in brain GABA level administered for 7 days by TLC analysis; format: functional
# [13] = Hepatotoxicity in albino mouse assessed as appearance of normal hepatocyte with clearing of cytoplasm at 30 mg/kg, po administered daily for one month measured post-last dose by histopathological analysis; format: toxicity, organism-based; conditions: in vivo
# [14] = Hepatotoxicity in albino mouse assessed as decrease in serum alkaline phosphatase level at 30 mg/kg, po administered daily for one month measured post-last dose; format: toxicity, organism-based; conditions: in vivo
# 4-aminobutyrate aminotransferase, mitochondrial, sequence (P61922 whole entry): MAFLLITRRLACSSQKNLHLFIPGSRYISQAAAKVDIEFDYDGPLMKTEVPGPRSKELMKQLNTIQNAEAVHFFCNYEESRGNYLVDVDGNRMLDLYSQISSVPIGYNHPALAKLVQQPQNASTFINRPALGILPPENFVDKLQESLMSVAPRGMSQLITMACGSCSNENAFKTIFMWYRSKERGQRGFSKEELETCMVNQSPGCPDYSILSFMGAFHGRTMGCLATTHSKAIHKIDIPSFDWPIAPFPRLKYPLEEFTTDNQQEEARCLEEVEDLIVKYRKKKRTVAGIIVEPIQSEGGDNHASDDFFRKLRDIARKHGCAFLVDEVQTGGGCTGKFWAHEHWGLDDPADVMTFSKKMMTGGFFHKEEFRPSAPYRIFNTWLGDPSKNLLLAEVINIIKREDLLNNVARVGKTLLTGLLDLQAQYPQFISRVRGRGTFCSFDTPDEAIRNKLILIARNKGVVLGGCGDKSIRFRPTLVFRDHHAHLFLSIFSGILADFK
Structure (SMILES),MED=>50 (Mus musculus [1]),MED=>50 (Mus musculus [2]),MED=>50 (Mus musculus [3]),MED=>50 (Mus musculus [4]),MED=>50 [5],MED=>50 [6],IC50 [7] [µM],Activity [8],Activity [9],Activity [10],Activity [11],fold change (FC) (Mus musculus [12]),Activity [13],Activity [14]
CC(=O)Oc1ccccc1C1SCC(=O)N1NC(=O)Nc1nc2ccc(Cl)cc2s1 (stereo not drawn),inactive,300 mg/kg,inactive,300 mg/kg,Non-Toxic,Non-Toxic,,,,,,,,
COc1ccc(C2C(Cl)C(=O)N2NC(=O)Nc2nc3ccc(Cl)cc3s2)cc1 (stereo not drawn),inactive,300 mg/kg,inactive,300 mg/kg,Non-Toxic,Non-Toxic,,,,,,,,
O=C1NC(=O)C(c2ccccc2)(c2ccccc2)N1 [PHENYTOIN],inactive,30 mg/kg,inactive,30 mg/kg,100 mg/kg,100 mg/kg,,,,,,,,
O=C(Nc1nc2ccc(Cl)cc2s1)NN1C(=O)CSC1c1ccccc1 (stereo not drawn),300 mg/kg,300 mg/kg,300 mg/kg,300 mg/kg,Non-Toxic,Non-Toxic,,,,,,,,
C=CC(N)CCC(=O)O (stereo not drawn) [VIGABATRIN],,,,,,,39.7,,,,,,,
CCC1(C)CC(=O)NC1=O (stereo not drawn) [ETHOSUXIMIDE],300 mg/kg,inactive,inactive,inactive,Non-Toxic,Non-Toxic,,,,,,,,
NC(=O)N1c2ccccc2C=Cc2ccccc21 [CARBAMAZEPINE],100 mg/kg,100 mg/kg,100 mg/kg,30 mg/kg,300 mg/kg,100 mg/kg,,,,,,,,
O=C(Nc1nc2ccc(Cl)cc2s1)NN1C(=O)C(Cl)C1c1ccccc1Cl (stereo not drawn),inactive,300 mg/kg,inactive,300 mg/kg,Non-Toxic,Non-Toxic,,,,,,,,
O=C(Nc1nc2ccc(Cl)cc2s1)NN1C(=O)C(Cl)C1c1ccc(Cl)cc1Cl (stereo not drawn),100 mg/kg,100 mg/kg,100 mg/kg,30 mg/kg,Non-Toxic,Non-Toxic,51.4,Toxic,Toxic,Toxic,,,,
O=C(Nc1nc2ccc(Cl)cc2s1)NN1C(=O)CSC1c1ccc(Cl)cc1Cl (stereo not drawn),100 mg/kg,100 mg/kg,100 mg/kg,30 mg/kg,Non-Toxic,Non-Toxic,15.3,,,Toxic,Toxic,1.5,Non-Toxic,Toxic
O=C(Nc1nc2ccc(Cl)cc2s1)NN1C(=O)C(Cl)C1c1ccc([N+](=O)[O-])cc1 (stereo not drawn),300 mg/kg,100 mg/kg,300 mg/kg,100 mg/kg,Non-Toxic,Non-Toxic,,,,,,,,
CCCC(CCC)C(=O)O [VALPROIC ACID],300 mg/kg,inactive,inactive,inactive,Non-Toxic,Non-Toxic,,,,,,,,
COc1ccc(C2SCC(=O)N2NC(=O)Nc2nc3ccc(Cl)cc3s2)cc1 (stereo not drawn),inactive,inactive,inactive,300 mg/kg,Non-Toxic,Non-Toxic,,,,,,,,
Cc1ccccc1C1C(Cl)C(=O)N1NC(=O)Nc1nc2ccc(Cl)cc2s1 (stereo not drawn),inactive,300 mg/kg,inactive,300 mg/kg,300 mg/kg,300 mg/kg,,,,,,,,
CC(=O)Oc1ccccc1C1C(Cl)C(=O)N1NC(=O)Nc1nc2ccc(Cl)cc2s1 (stereo not drawn),inactive,300 mg/kg,inactive,300 mg/kg,Non-Toxic,Non-Toxic,,,,,,,,
O=C(Nc1nc2ccc(Cl)cc2s1)NN1C(=O)CSC1c1ccccc1Cl (stereo not drawn),300 mg/kg,100 mg/kg,300 mg/kg,100 mg/kg,Non-Toxic,Non-Toxic,,,,,,,,
Cc1ccccc1C1SCC(=O)N1NC(=O)Nc1nc2ccc(Cl)cc2s1 (stereo not drawn),inactive,300 mg/kg,inactive,300 mg/kg,300 mg/kg,300 mg/kg,,,,,,,,
O=C(Nc1nc2ccc(Cl)cc2s1)NN1C(=O)CSC1c1ccc([N+](=O)[O-])cc1 (stereo not drawn),100 mg/kg,100 mg/kg,100 mg/kg,30 mg/kg,Non-Toxic,Non-Toxic,58.1,Toxic,Toxic,Toxic,,,,
O=C(Nc1nc2ccc(Cl)cc2s1)NN1C(=O)C(Cl)C1c1ccccc1 (stereo not drawn),inactive,300 mg/kg,inactive,300 mg/kg,Non-Toxic,Non-Toxic,,,,,,,,
